The target of test [1] is Dipeptidyl peptidase 4 (Rattus norvegicus) (UniProt P14740). The following applies: 64 ng/ml.
Description: Inhibition of rat kidney DPP4 at 64 ng/ml
The target is the same in test [2]. The following applies: 1 ng/ml.
Description: Inhibition of rat kidney DPP4 at 1 ng/ml
Test [3] has the same target. Conditions: 2 ng/ml.
Description: Inhibition of rat kidney DPP4 at 2 ng/ml
The target is the same in test [4]. Conditions: 32 ng/ml.
Description: Inhibition of rat kidney DPP4 at 32 ng/ml
The target is the same in test [5]. Conditions: 4 ng/ml.
Description: Inhibition of rat kidney DPP4 at 4 ng/ml
Test [6] shares this target. Conditions: 16 ng/ml.
Description: Inhibition of rat kidney DPP4 at 16 ng/ml
Test [7] shares this target. Conditions: 0.5 ng/ml.
Description: Inhibition of rat kidney DPP4 at 0.5 ng/ml
For test [8] the target is unchanged. Conditions: 8 ng/ml.
Description: Inhibition of rat kidney DPP4 at 8 ng/ml

Dipeptidyl peptidase 4 (Rattus norvegicus), sequence (P14740 whole entry, looked up): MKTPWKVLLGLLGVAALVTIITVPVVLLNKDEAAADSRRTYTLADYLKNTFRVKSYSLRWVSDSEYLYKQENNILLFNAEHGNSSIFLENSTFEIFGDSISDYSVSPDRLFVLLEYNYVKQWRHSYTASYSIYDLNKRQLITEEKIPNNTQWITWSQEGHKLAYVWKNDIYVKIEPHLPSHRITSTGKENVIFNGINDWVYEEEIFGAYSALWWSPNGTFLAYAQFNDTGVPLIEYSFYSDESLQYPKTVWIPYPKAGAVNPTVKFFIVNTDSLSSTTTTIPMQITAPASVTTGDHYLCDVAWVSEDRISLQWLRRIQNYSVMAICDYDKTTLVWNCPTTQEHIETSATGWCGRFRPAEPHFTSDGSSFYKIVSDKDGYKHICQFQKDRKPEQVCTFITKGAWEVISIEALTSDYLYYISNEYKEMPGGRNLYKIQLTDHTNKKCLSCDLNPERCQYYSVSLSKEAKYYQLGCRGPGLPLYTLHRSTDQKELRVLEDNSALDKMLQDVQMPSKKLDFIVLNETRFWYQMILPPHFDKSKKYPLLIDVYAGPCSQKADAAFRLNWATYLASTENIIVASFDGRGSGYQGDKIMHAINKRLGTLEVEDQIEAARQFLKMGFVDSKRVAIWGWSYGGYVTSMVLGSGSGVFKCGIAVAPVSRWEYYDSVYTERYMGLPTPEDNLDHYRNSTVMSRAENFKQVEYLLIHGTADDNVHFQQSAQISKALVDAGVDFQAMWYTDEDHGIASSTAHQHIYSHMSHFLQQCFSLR

For `N[C@H]1CCCN([P@@](N)(=O)NS(=O)(=O)O)C1=O`, the inhibition in test [1] was 84.5%; in test [2], 20.2%; in test [3], 30.6%; in test [4], 77.4%; in test [5], 41.9%; in test [6], 66.9%. Besides, the values for the inhibition in test [7] and in test [8] were 15.9% and 54.4%, respectively.
